Measurements reported in patent publication US4931457A, “Naphthylamino-and naphthyloxy-pyridinamine comounds useful as topical antiinflammatory agents for the treatment of skin disorders” (Hoechst-Roussel Pharmaceuticals Inc., priority 1989, dated 1990).
Where a name gives a salt, the structure may show the parent alone. Read-outs that look alike come from different tables or passages of the source.

Legend:
[1] = test system: mouse ear edema induced by topical application of arachidonic acid; assay: Arachidonic Acid-Induced Ear Edema (AAEE); assay type: in vivo, Female Swiss Webster mice; conditions: for AAEE, ear edema: 1 mg (1.0 mg/ear), arachidonic acid 4 mg/ear
Experimental: The purpose of this assay was to determine the ability of a topically-applied compound to prevent mouse ear edema induced by topical application of arachidonic acid. Female Swiss Webster mice topically received vehicle or test compound (1.0 mg/ear) on both ears (10 μl on outer and inner ears). After 30 minutes, the right ear of all groups received arachidonic acid (4 mg/ear) and the left ear received vehicle alone. After an additional 1 hour, the mice were sacrificed and an ear punch (4 mm) was taken from each ear. The difference in right and left ear punch weights for each animal was determined to assess activity. […] See Young, J. M. et al., Invest. Dermatol., 80, (1983), pp 48-52.

porcine pancreatic PLA2 = porcine pancreatic PLA2 (Sus scrofa, UniProt P00592); assay: biochemical
Experimental: The ability of a compound to modulate PLA2 activity (cleavage of ^14 C-dipalmitoyl phosphotidylcholine at the 2-position to ^14 C-palmitic acid) was quantitated in this assay. The reaction mixture contained Tris buffer (25 mM), pH 8.0, calcium chloride (2.0 mM), bovine serum albumin (0.5 mg), dipalmitoyl phosphotidylcholine (8×10^-5M), (^14 C-palmitoyl)dipalmitoyl phosphotidylcholine (6×10^3cpm), porcine pancreatic PLA2 (3.2 units) and the test compound. The reaction was run at 37° C. in a shaking incubator. The reaction was quenched and an internal standard was added in order to determine sample recovery. The samples were loaded onto C18 columns, eluted with ethanol, and the radioactivity was then measured. […] See Feyen, J. H. M., et al., Journal of Chromatography 259 (1983), pp. 338-340.

[2] = test system: naja naja (snake venom) phospholipase A2 -induced paw edema; assay: Phospholipase A2-induced Paw Edema (PIPE); assay type: in vivo, male Wistar rats; conditions: 0.1 M; injected with PLA2 (3 units/paw) in subplantar region of rat left hindpaw; two hours
Experimental: The ability of compounds to prevent naja naja (snake venom) phospholipase A2 -induced paw edema in male Wistar rats (100-125 g) was measured. PLA2 (3 units/paw) alone or with 0.1M of the test compound was injected in the subplantar region of the rat left hindpaw. Immediately subsequent to the injection and at two hours post administration the paw was immersed in a mercury bath, and paw displacement was measured on a recorder via a transducer. […] See Giessler, A. J. et al., Agents and Actions, Vol. 10, Trends in Inflammation Research (1981), p. 195.

[3] = test system: ear edema induced by topical application of TPA (phorbol 12-myristate acetate); assay: TPA-Induced Ear Edema (TPAEE); assay type: in vivo, Female Swiss Webster mice; conditions: for TPAEE, ear edema: 10 μg (10 μg/ear), TPA 10 μg/ear, five hours
Experimental: The purpose of this assay was to determine the ability of a topically-applied compound to prevent ear edema induced by topical application of TPA (phorbol 12-myristate acetate). Female Swiss Webster mice topically received TPA (10 μg/ear) on the right ear and vehicle on the left ear. The test compound (10 μg/ear) was applied to both ears. After five hours, the animals were sacrificed and an ear punch (4 mm) was taken from each ear. The difference in right and left ear punch weights for each animal was determined to assess activity. […] See Young, J. M. et al., J. Invest. Dermatol., 80 (1983), pp. 48-52.

[4] = test system: epidermal DNA synthesis (proliferation of skin); assay: Epidermal DNA Synthesis (in vivo DNA); design: species or system HRS/J hairless mice; conditions: Standard; topical, 24 hours, 3H-thymidine incorporation
Experimental: The influence of compounds on the proliferation of skin was assessed by determining inhibition or stimulation of DNA synthesis. HRS/J hairless mice received topical application of a compound or vehicle alone on the dorsal aspect. After 24 hours, ^3 H-thymidine (25 μCi) was administered by intraperitoneal injection. After an additional hour, animals were sacrificed and the dorsal skin was removed. The epidermal layer was peeled from the dermis by heat separation. Unincorporated ^3 H-thymidine was removed by washing successively with trichloroacetic acid and ethanol. Samples were centrifuged at 2,000 rpm and supernatants discarded. The epidermal sheets were then extracted with warm trichloroacetic acid and the supernatants analyzed for ^3 H-thymidine incorporation by total DNA by a standard colorimetric assay. […] See Lowe, N. J., et at., Arch. Dermatol., 117 (1981), pp. 394-8; and Burton, K., Biochem. J. 62 (1956), pp. 315-22.

[5] = test system: cultured human epidermal keratinocytes; assay: Cultured Human Keratinocyte DNA Synthesis (in vitro DNA); assay type: cell-based; conditions: Standard, 24 hours incubation, 3H-thymidine incorporation
Experimental: The effect of a compound on the proliferation of cultured human epidermal keratinocytes was measured. After incubation with a test compound for 24 hours, the cultures were pulse-labelled for three hours with 5 μCi of ^3 H-thymidine. The cultures were extracted for DNA successively with trichloroacetic acid and ethanol, and thereafter dissolved with NaOH. The radioactive incorporation of ^3 H-thymidine into DNA was determined.

[6] = 0.01 M, in vitro, pH 8.0, 37° C., read-out: PLA2, difference vs. control
[7] = pH 8, read-out: PLA2, difference vs. control

Sequence of porcine pancreatic PLA2 (P00592 23-146): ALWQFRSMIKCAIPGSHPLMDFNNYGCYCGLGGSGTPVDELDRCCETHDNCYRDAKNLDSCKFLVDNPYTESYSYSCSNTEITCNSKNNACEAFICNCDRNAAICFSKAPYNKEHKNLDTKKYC

Question: `O=[N+]([O-])c1cc[n+]([O-])cc1Oc1cccc2ccccc12` [3-(1-Naphthyloxy)-4-nitropyridine-N-oxide] was tested. Which “AAEE, ear edema” value [1] did it give?
Answer: -27%

Question: With `Nc1ccncc1Oc1cccc2ccccc12` [3-(1-Naphthyloxy)-4-pyridinamine] as the compound, how does the “AAEE, ear edema” value [1] read?
Answer: -66%

Question: And the inhibition at 10000 µM (porcine pancreatic PLA2; [6])?
Answer: 54%

Question: And the “PIPE, difference in edema vs. control” value [2]?
Answer: -60%

Question: For `Nc1ccncc1Oc1ccc2ccccc2c1` [3-(2-Naphthyloxy)-4-pyridinamine], which “AAEE, ear edema” value [1] is on record?
Answer: -59%

Question: For `O=[N+]([O-])c1cc[n+]([O-])cc1Oc1ccc(Cl)c2ccccc12` [3-(4-Chloro-1-naphthyloxy)-4-nitropyridine-N-oxide], which “TPAEE, ear edema” value [3] is on record?
Answer: -41%

Question: For `Nc1ccncc1Oc1ccc(Cl)c2ccccc12` [3-(4-Chloro-1-naphthyloxy)-4-pyridinamine oxalate], which inhibition at 10000 µM (porcine pancreatic PLA2; [7]) is on record?
Answer: 110%

Question: How did the “PIPE, difference in edema vs. control” value [2] turn out when `COc1ccc(Oc2cnccc2N)c2ccccc12` [3-(4-Methoxy-1-naphthyloxy)-4-pyridinamine] was run?
Answer: -40%

Question: `Nc1ccncc1Oc1cccc2c1CCCC2` [3-(5,6,7,8-Tetrahydro-1-naphthyloxy)-4-pyridinamine hydrochloride] was tested. Which inhibition at 10000 µM (porcine pancreatic PLA2; [7]) did it give?
Answer: 110%

Question: How did the “TPAEE, ear edema” value [3] turn out when `O=[N+]([O-])c1cc[n+]([O-])cc1Oc1ccc2cc(Br)ccc2c1` [3-(6-Bromo-2-naphthyloxy)-4-nitropyridine-N-oxide] was run?
Answer: -43%

Question: With `O=[N+]([O-])c1cnccc1Oc1cccc2ccccc12` [4-(1-Naphthyloxy)-3-nitropyridine] as the compound, how does the “TPAEE, ear edema” value [3] read?
Answer: -72%

Question: How did the “TPAEE, ear edema” value [3] turn out when `Cl.Nc1cnccc1Oc1cccc2ccccc12` [4-(1-Naphthyloxy)-3-pyridinamine hydrochloride] was run?
Answer: -40%

Question: For `O=[N+]([O-])c1cc[n+]([O-])cc1Oc1cccc2c1CCCC2` [4-Nitro-3-(5,6,7,8-tetrahydro-1-naphthyloxy)pyridine-N-oxide], which inhibition at 10000 µM (porcine pancreatic PLA2; [6]) is on record?
Answer: 38%

Question: For `O=[N+]([O-])c1cc[n+]([O-])cc1Nc1cccc2ccccc12` [N-(1-Naphthyl)-4-nitro-3-pyridinamine-N-oxide], which “TPAEE, ear edema” value [3] is on record?
Answer: -40%

Question: Which ED50 ([3]; Standard, TPA ear edema, mouse) does the source give for `C[C@]12CCC(=O)C=C1CC[C@@H]1[C@@H]2[C@@H](O)C[C@@]2(C)[C@H]1CC[C@]2(O)C(=O)CO` [hydrocortisone, reference compound] here?
Answer: 47 μg/ear

Question: With `COc1ccc2c(c1)c(CC(=O)O)c(C)n2C(=O)c1ccc(Cl)cc1` [indomethacin] as the compound, how does the ED50 ([1]; Standard, arachidonic acid ear edema, mouse) read?
Answer: 1.5 mg/ear

Question: And the ED50 [4]?
Answer: 1.75 mg/animal

Question: What about the IC50 [5] of the same compound?
Answer: 38 µM

Question: How did the IC50 (porcine pancreatic PLA2) turn out when `CCN(CC)CCCC(C)Nc1c2ccc(Cl)cc2nc2ccc(OC)cc12` (stereo not shown) [quinacrine, reference compound] was run?
Answer: 350 µM
